Assay results published in patent US20240058335A1, “METHODS FOR TREATMENT OF CANCER USING ABL INHIBITORS AND DRUGS TARGETING THE MEVALONATE PATHWAY” (Duke University, priority 2021, published 2024).

Legend:
[1] = test system: lung cancer cells (PC9, PC9 GR4, H460, H358); assay: Seahorse XF Analyzer Mito Stress Test (OCR: basal respiration, maximal respiration, ATP production); format: cell-based, human; conditions: IC50 doses, 24 hours; PC9, PC9 GR4, H460, H358
From the text: (FIGS. 2A-2D) Seahorse XF Analyzer Mito Stress Test analysis of mitochondrial basal respiration, maximal respiration, and ATP production as measured by changes in oxygen consumption rate (OCR). […] (FIG. 2E) Mitochondrial basal respiration, maximal respiration, and ATP production as measured by Seahorse XF Analyzer's Mito Stress Test for PC9 cells harboring shRNAs against ABL1/ABL2 (shAA) and non-targeting control (shSCR). (FIGS. 2F-2G) Mitochondrial ROS (MitoROS) release as measured by FACS analysis of median fluorescent intensity (MFI) using Mitosox probe. […] Data are mean±SEM. […] Seahorse XF Analyzer Mito Stress Test analysis of mitochondrial basal respiration, maximal respiration, and ATP production as measured by changes in oxygen consumption rate (OCR) in the indicated lung cancer cells: (FIG. 8A) PC9; (FIG. 8B) PC9 GR4; (FIG. 8C) H460. […] Doses correspond to IC50 dose for each drug in the corresponding cell line. In each graph, for each of Basal Respiration, Maximal Respiration, and ATP production, data is shown from left to right for DMSO, GNF5, and Nilotinib. […] Cells were treated with IC50 doses for 24 hours (n=3). Data are mean±SEM. […] SEAHORSE MEASUREMENTS. Basal and maximal oxygen consumption rate and ATP production were measured using a Mito Stress test Kit and XF96 Extracellular Flux Analyzer (Seahorse Bioscience), according to manufacturer's instructions. Cells were plated in XF96 plates at 10,000 cells per well on Day 0. […] The plate was incubated in a non-CO2 incubator at 37° C. for 1 hr to equilibrate.

H460 cells = assay: Cell viability dose-response assay (CellTiter-Glo), IC50 calculation; format: cell-based, human; conditions: H460; dose-response assay; read-out: Calculated IC50
PC9 BrM3 cells = assay: as above; format: cell-based, human; conditions: PC9 BrM3; dose-response assay; read-out: Calculated IC50
PC9 cells = conditions: read-out: Calculated IC50, dose-response assay
[2] = test system: lung cancer cells (PC9, PC9 GR4, PC9 BrM3, H460, H358); assay: 72 hr growth inhibition / cell viability assay with drug combinations and metabolite rescue; format: cell-based, human; conditions: PC9-BrM3, sub-therapeutic doses, 72 hrs

With O=C(NCCO)c1cccc(-c2cc(Nc3ccc(OC(F)(F)F)cc3)ncn2)c1 [GNF5] the “mitochondrial function (basal respiration, maximal respiration, ATP production; OCR)” value [1] was “greatly decreased”, the IC50 (H460 cells) was 15 µM and the IC50 (PC9 BrM3 cells) was 10 µM. For the same compound, the IC50 (PC9 cells) was 10 µM and the “cell survival in the presence of statins” value [2] was “decreased cell survival”.
